# Data: PMC5962878, “The Somatostatin Receptor-4 Agonist J-2156 Alleviates Mechanical Hypersensitivity in a Rat Model of Breast Cancer Induced Bone Pain” (Frontiers in Pharmacology, 2018)
# Legend:
# [1] = biological target: T1, human somatostatin receptor type 1 (H-SST1) (Homo sapiens, UniProt P30872); experiment: radioligand competition, CHO-K1 membranes, […]-Tyr3-somatostatin-14; type: binding; conditions: read-out: Mean (±SEM) Ki values (nM) / H-SST1 receptor
# T1 construct: gene SSTR1; stably expressed in CHO-K1, membranes from Perkin Elmer
# [2] = biological target: T2, rat SST4 receptor (R-SST4) (Rattus norvegicus, UniProt P30937); experiment: as above; type: binding; conditions: read-out: Mean (±SEM) Ki values (nM) / R-SST4 receptor
# T2 construct: gene Sstr4; H4 cells for cAMP
# [3] = biological target: T3, human SST4 receptor (H-SST4) (Homo sapiens, UniProt P31391); experiment: LANCE cAMP, inhibition of forskolin-stimulated cAMP, H4 cells; type: cell-based; conditions: read-out: Mean (±SEM) IC50 values (nM) / H-SST4
# T3 construct: gene SSTR4; H4 cells (Perkin Elmer) for cAMP
# [4] = biological target: T3, human SST4 receptor (H-SST4); experiment: radioligand competition, CHO-K1 membranes, […]-Tyr3-somatostatin-14; type: binding; conditions: read-out: Mean (±SEM) Ki values (nM) / H-SST4 receptor
# [5] = biological target: T4, human somatostatin receptor type 2 (H-SST2) (Homo sapiens, UniProt P30874); experiment: as above; type: binding; conditions: read-out: Mean (±SEM) Ki values (nM) / H-SST2 receptor
# T4 construct: gene SSTR2; stably expressed in CHO-K1, membranes from Perkin Elmer
# [6] = biological target: T2, rat SST4 receptor (R-SST4); experiment: LANCE cAMP, inhibition of forskolin-stimulated cAMP, H4 cells; type: cell-based; conditions: read-out: Mean (±SEM) IC50 values (nM) / R-SST4
# [7] = biological target: T5, human somatostatin receptor type 3 (H-SST3) (Homo sapiens, UniProt P32745); experiment: radioligand competition, CHO-K1 membranes, […]-Tyr3-somatostatin-14; type: binding; conditions: read-out: Mean (±SEM) Ki values (nM) / H-SST3 receptor
# T5 construct: gene SSTR3; stably expressed in CHO-K1, membranes from Perkin Elmer
# [8] = biological target: T6, human somatostatin receptor type 5 (H-SST5) (Homo sapiens, UniProt P35346); experiment: as above; type: binding; conditions: read-out: Mean (±SEM) Ki values (nM) / H-SST5 receptor
# T6 construct: gene SSTR5; stably expressed in CHO-K1, membranes from Perkin Elmer; printed catalogue number ES-522-M400UA is the same as for type 3 (likely misprint)
# T6 sequence (P35346 whole entry): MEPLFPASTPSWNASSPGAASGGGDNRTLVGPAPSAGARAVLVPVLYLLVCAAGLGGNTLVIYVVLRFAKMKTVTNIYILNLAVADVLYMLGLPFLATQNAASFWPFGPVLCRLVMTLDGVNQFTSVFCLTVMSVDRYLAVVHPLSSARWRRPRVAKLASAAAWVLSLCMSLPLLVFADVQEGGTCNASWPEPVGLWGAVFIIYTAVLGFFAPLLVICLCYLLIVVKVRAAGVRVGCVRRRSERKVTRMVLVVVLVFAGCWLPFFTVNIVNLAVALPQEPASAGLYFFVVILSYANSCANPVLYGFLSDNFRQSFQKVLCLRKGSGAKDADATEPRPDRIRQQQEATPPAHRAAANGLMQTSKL
# T3 sequence (P31391 whole entry): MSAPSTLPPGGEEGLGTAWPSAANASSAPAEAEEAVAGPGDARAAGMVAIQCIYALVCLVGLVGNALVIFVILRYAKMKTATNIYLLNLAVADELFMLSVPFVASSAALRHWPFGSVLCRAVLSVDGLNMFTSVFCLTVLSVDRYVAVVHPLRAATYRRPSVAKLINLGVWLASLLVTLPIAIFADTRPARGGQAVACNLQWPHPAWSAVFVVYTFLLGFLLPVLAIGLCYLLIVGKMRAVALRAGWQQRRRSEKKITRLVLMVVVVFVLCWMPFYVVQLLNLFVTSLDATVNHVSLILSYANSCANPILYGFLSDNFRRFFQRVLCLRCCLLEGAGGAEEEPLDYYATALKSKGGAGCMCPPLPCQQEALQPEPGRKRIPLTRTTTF
# T2 sequence (P30937 whole entry): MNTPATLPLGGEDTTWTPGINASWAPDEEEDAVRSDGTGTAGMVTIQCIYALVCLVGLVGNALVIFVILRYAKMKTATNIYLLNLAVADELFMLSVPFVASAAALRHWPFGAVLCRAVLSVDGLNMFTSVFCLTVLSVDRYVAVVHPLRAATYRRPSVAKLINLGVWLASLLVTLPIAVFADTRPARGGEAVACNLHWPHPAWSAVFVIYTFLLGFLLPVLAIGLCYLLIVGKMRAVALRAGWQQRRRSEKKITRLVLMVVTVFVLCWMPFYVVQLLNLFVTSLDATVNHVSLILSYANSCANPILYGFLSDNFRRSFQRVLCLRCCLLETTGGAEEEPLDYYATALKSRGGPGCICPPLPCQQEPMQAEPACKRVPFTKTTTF
# T4 sequence (P30874 whole entry): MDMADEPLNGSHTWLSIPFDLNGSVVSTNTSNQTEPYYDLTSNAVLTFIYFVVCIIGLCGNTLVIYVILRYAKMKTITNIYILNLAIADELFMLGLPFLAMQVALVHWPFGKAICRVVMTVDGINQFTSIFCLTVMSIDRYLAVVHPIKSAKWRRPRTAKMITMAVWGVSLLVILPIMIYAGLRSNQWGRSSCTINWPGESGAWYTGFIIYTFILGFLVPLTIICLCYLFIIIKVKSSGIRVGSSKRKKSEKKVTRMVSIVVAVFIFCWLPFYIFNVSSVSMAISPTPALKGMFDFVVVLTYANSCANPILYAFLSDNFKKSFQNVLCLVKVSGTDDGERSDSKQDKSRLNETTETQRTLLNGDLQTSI
# T5 sequence (P32745 whole entry): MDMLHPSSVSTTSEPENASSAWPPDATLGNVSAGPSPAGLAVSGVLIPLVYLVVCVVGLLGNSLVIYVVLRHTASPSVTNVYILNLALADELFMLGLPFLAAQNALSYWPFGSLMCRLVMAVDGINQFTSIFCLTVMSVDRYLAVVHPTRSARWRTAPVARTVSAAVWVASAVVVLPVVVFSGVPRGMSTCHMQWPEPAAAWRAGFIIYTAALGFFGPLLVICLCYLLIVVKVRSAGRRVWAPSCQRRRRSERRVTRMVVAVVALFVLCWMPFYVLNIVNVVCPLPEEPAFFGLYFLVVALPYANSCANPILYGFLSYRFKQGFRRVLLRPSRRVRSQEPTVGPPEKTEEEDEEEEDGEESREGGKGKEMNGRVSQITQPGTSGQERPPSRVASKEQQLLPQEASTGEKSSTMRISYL
# T1 sequence (P30872 whole entry): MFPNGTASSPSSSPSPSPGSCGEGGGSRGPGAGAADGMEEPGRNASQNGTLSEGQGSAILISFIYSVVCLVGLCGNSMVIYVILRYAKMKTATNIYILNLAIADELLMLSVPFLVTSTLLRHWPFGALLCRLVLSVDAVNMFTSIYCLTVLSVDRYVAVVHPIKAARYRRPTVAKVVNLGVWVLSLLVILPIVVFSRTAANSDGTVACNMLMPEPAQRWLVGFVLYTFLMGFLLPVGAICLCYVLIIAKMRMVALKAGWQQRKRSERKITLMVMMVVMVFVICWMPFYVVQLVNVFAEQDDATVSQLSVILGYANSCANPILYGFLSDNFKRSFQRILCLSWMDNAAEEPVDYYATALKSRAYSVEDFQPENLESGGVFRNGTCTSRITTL
compound,measurement,setting,value
"Cc1ccc(S(=O)(=O)N[C@@H](CCN)C(=O)N[C@@H](Cc2ccccc2)C(N)=O)c2ccccc12 [J-2156, (1′S,2S)-4amino-N-(1′-carbamoyl-2′-phenylethyl)-2-(4″-methyl-1″-naphthalenesulfonylamino)butanamide]",Ki,[1],589 ± 266 nM
same,Ki,[2],0.89 ± 0.64 nM
same,IC50,[3],0.05 ± 0.01 nM
same,Ki,[4],0.56 ± 0.1 nM
same,Ki,[5],25100 nM
same,IC50,[6],0.07 ± 0.005 nM
same,Ki,[7],234 ± 112 nM
same,Ki,[8],468 ± 156 nM
